Patent US20070042056A1, “Anti-stress agent” (priority 2003, published 2007)

Key:
ddy male mice = test: Enhancing activity on pentobarbital-induced sleep (duration of the sleeping time); type: in vivo
Protocol: As a test animal, ddy male mice (8-week age) were purchased from Shimizu Laboratory Supplies Co., Ltd., pre-bred for one week and used in the experiment. Each five of the mice were bred in a polyisopentene cage (manufactured by Clea Japan. Inc.) in a breeding chamber where the breeding conditions were set at room temperature of 23±2° C., humidity of 55±5%, ventilation frequency of 12 to 15/hour (all fresh air ventilation), and lighting hours of 12 hours/day (from 7 a.m. to 7 p.m.). The mice were fed solid feed CE-2 (Clea Japan Inc.) and were allowed free access to water.
1-Octen-3-ol dissolved in olive oil was orally administered to a mouse at a dose of 20 or 100 mg/kg. In each group, 8 mice were used. Thirty minutes later, pentobarbital dissolved in physiological saline was intraperitoneally administered at a dose of 50 mg/kg, and duration of the sleeping time was measured. The sleeping time was defined as the time period from the loss of righting reflex until its recovery.
The experimental results shown in FIG. 3 are expressed by average±standard error, and Student t-test was used in a significant difference test.
As a test animal, ddy male mice (8-week age) were purchased from Shimizu Laboratory Supplies Co., pre-bred for one week, and used in the experiment. Each five of the mice were bred in a polyisopentene cage (manufactured by Clea Japan. Inc.) in a breeding chamber where the breeding conditions were set at room temperature of 23±2° C., humidity of 55±5%, ventilation frequency of 12 to 15/hour (all fresh air ventilation) and lighting hours of 12 hours a day (from 7 a.m. to 7 p.m.). The mice were fed solid feed CE-2 (Clea Japan. Inc.) and were allowed free access to water.
A mouse was made to aspirate cis-jasmone and methyl jasmonate diluted to 0.1% in an exposure box until the completion of the experiment. In each group, 5 mice were used. Thirty minutes after initiation of aspiration, pentobarbital dissolved in physiological saline was intraperitoneally administered at a dose of 50 mg/kg, and duration of the sleeping time was measured. […]

GABA receptor [1] = test: In vitro GABA receptor-activating activity, Xenopus oocyte expressing GABA receptor, voltage clamp; type: cell-based, rat; conditions: for GABA response to GABA receptor, relative value of inhibitory potential vs GABA only (set at 100%): GABA 5 μM
Protocol: As an experimental material, an oocyte of Xenopus was used. A rat-derived GABA receptor mRNA was injected into the nucleus of an oocyte to express GABA receptor on the surface of the egg. The oocyte was cultured in a normal Ringer's solution for frog (115 mM NaCl, 1 mM KCl, 1.8 mM CaCl2, 5 mM Tris, pH 7.2). Using the resulting oocyte, inhibitory potential of GABA (10 μM) and inhibitory potential of a mixed solution of GABA (10 μM) and the below mentioned sample were measured. Generation of inhibitory potential was measured by voltage clamp method using a voltage clamping amplifier (CEZ-1100; manufactured by NIHON KODEN CORPORATION).
As a sample, the following 9 kinds of aroma components contained in coffee or teas were used in a concentration of 2 μl/ml. Samples used are as follows: 2-methyl-3-buten-2-ol (expressed by 2-M3BOL in FIG. 1), 3-methyl-2-buten-1-ol (expressed by 3-M2BOL in FIG. 1), 1-penten-3-ol (expressed by 1-POL in FIG. 1), (E)-2-hexen-1-ol (expressed by HXOL in FIG. 1), 1-octen-3-ol (expressed by 1-OCOL in FIG. 1), sotolone (expressed by STOL in FIG. 1), 2,4-dimethylstyrene (expressed by 2,4-DMS in FIG. 1), benzothiazole (expressed by BZT in FIG. 1) and 2,3,5-trimethylphenol (expressed by 2,3,5-TEP in FIG. 1). The aforementioned samples used in the experiment were commercially available products. That is, sotolone manufactured by Ogawa & Co., Ltd. and other compounds manufactured by Tokyo Kasei Co., Ltd. were used.
As an index, enhancing activity of the sample on inhibitory potential induced by GABA was used. The results are expressed by % increase of the inhibitory potential when GABA and a sample were used in combination, relative to the inhibitory potential generated when only GABA (0.25 μM) was added (set at 100%).
Dose dependency of 1-octen-3-ol which had been recognized to have a strong activity in Example 1 was studied. The experimental procedures were entirely the same as those of Example 1. The concentration of GABA was 5 μM, and the concentration of 1-octen-3-ol was 0.3 to 1 mM. […] The results shown in FIG. 2 are expressed by the relative value of the inhibitory potential when GABA and 1-octen-3-ol were used in combination, compared to the inhibitory potential generated when only GABA (5 μM) was added (set at 100%).
As an experimental material, an oocyte of Xenopus was used. A rat-derived GABA receptor mRNA was injected into the nucleus of an oocyte to express GABA receptor on the surface of an egg. The oocyte was cultured in a normal Ringer's solution for frog (115 mM NaCl, 1 mM KCl, 1.8 mM CaCl2, 5 mM Tris, pH 7.2). Generation of the inhibitory potential induced by GABA (0.25 μM) was measured by voltage clamp method using a voltage clamping amplifier (CEZ-1100; manufactured by Nihon Koden corporation).
As samples, the below-mentioned 4 kinds of aroma components of oolong tea were used in a concentration of 0.5 mM. The samples used are as follows: cis-jasmone, methyl jasmonate, jasmine lactone and linalool oxide.
Dose dependency of cis-jasmone and methyl jasmonate which had been recognized to have a strong activity in Example 4 was studied. The experimental procedures were entirely the same as those of Example 4. The concentration of GABA was 5 μM, and the concentrations of cis-jasmone and methyl jasmonate were 0.2 to 1 mM. […] The results shown in FIG. 5 are expressed by the relative value of the inhibitory potential when GABA and cis-jasmone and methyl jasmonate were used in combination compared to the inhibitory potential generated when only GABA (5 μM) was added (set at 100%).

rat = conditions: cited from earlier work; for development of gastric ulcer: cold-restraint stress (4° C., 2 hours), intraventricular administration
[2] = 1998-1999 Scientific Research Subsidy Research Outcome Report; cited from earlier work
GABA receptor [3] = conditions: Biosci. Biotechnol. Biochem., 63, 743-748, 1999; cited from earlier work
[4] = Example 6, FIG. 6, aspiration of sample diluted to 0.1% in exposure box, pentobarbital 50 mg/kg i.p. after 30 min
[5] = Example 4, FIG. 4, sample 0.5 mM, GABA 0.25 μM
[6] = Example 5, FIG. 5, sample 0.2 to 1 mM

C=CC(O)CCCCC (centres unmarked) [1-octen-3-ol]
duration of the sleeping time induced by pentobarbital (ddy male mice; Example 3, FIG. 3, orally 20 or 100 mg/kg in olive oil, 30 min before pentobarbital 50 mg/kg i.p.): extended duration of the sleeping time induced by pentobarbital in a dose dependent manner | enhancing activity of the sample on inhibitory potential induced by GABA (GABA receptor [1]; Example 1, FIG. 1, sample 2 μl/ml, GABA 10 μM / 0.25 μM): strong activity to enhance the response | GABA response to GABA receptor, relative value of inhibitory potential vs GABA only (set at 100%) (GABA receptor [1]; Example 2, FIG. 2, 1-octen-3-ol 0.3 to 1 mM): up to 400%

NCCCC(=O)O [GABA]
development of gastric ulcer (rat): suppressed in a dose dependent manner

NCc1cc(=O)[nH]o1 [Muscimol]
development of gastric ulcer (rat): suppressed in a dose dependent manner

CN1CCc2cc3c(cc2[C@H]1[C@@H]1OC(=O)c2c1ccc1c2OCO1)OCO3 [bicuculine]
effect on the inhibitory effect of GABA on stress ulceration (rat; cold-restraint stress, bicuculine 40 μg): diminishes the inhibitory effect of GABA on stress ulceration

CC/C=C\CC1=C(C)CCC1=O [cis-jasmone]
duration of the sleeping time induced by pentobarbital (ddy male mice; [4]): significantly extended duration of the sleeping time | enhancing activity of the sample on inhibitory potential induced by GABA (GABA receptor [1]; [5]): activity to enhance the response | GABA response to GABA receptor, relative value of inhibitory potential vs GABA only (set at 100%) (GABA receptor [1]; [6]): up to 200%

CCCCCCO [hexanol]
stress relaxing activity [2]: stress relaxing activity | GABA receptor-activating activity (GABA receptor [3]): has GABA receptor-activating activity

CC/C=C\CC1C(=O)CCC1CC(=O)OC (centres unmarked) [methyl jasmonate]
duration of the sleeping time induced by pentobarbital (ddy male mice; [4]): significantly extended duration of the sleeping time | enhancing activity of the sample on inhibitory potential induced by GABA (GABA receptor [1]; [5]): activity to enhance the response | GABA response to GABA receptor, relative value of inhibitory potential vs GABA only (set at 100%) (GABA receptor [1]; [6]): ≤ 300%
